Data on one compound can be found in patent publication US7138433B2, “Quinone-based therapeutic agent for hepatopathy” (Eisai Co., Ltd., priority 2002, dated 2006).

Structures are written as SMILES.

For data set [1], the system named is DCP positive hepatic cancer patients. Nature of the data set: Trial Example 1: randomized prospective controlled clinical trial of oral VK-II after hepatic cancer treatment. In kind it is in vivo, human. To be noted: treated group. The protocol:
A clinical trial (randomized prospective controlled study) was carried out as follows.
Out of patients with hepatocellular carcinoma, ones having a serum DCP level above 60 IU/L (DCP positive hepatic cancer) were included in the trial. On the other hand, patients having portal venous invasion, and patients in which there was already VK metabolism through administration of VK or an anti-VK agent, were excluded from the trial.
126 hepatic cancer patients were given treatment from February 1999 to November 2001. As the hepatic cancer treatment, percutaneous cauterization therapy (RFA and/or PEIT) for HCC, treatment via the blood vessels (TAE or TAI), or surgical excision was carried out. Of the patients, 5 were excluded from the present trial.
Next, the remaining 121 patients were randomly divided into a treated group (n=60) and an untreated group (n=61). The treated group were orally administered 45 mg/day of VK-II (proprietary name Glakay, made by Eisai Co., Ltd.) after the hepatic cancer treatment, while the untreated group were not administered VK-II.
Follow-up tests were carried out after the hepatic cancer treatment. As the follow-up tests, ultrasonography (abdominal echography) was carried out every 3 months, a CT scan was carried out every 6 months, and the levels of the tumor markers alpha-fetoprotein and DCP were measured every one month.
Statistical analysis was carried out on the PVI incidence rate and the survival rate for the two groups. That is, calculations were carried out using the Cox proportional hazard model, and a test was carried out using the log-rank method. The average observation period was 12±8 months.

Data set [2] has as its system hepatocellular carcinoma patients after treatment. Nature of the data set: Trial Example 2: trial of VK-II in inhibiting recurrence of hepatocellular carcinoma after treatment. In kind it is in vivo, human. To be noted: for risk ratio for recurrence of hepatic cancer: Cox proportional hazard model, control group = 1; for time period until 50% recurrence: control group 10 months. As to the method:
A trial was carried out as follows with an objective of investigating the effect and safety of VK-II in inhibiting recurrence of hepatocellular carcinoma after treatment. 61 cases in which hepatocellular carcinoma was diagnosed and then after treatment therefor necrosis (or curative excision) was judged by contrast CT to have completely occurred were entered from March 1999 to March 2001, the entered cases were divided into two groups, namely a VK-II-administered group for which the end of the patient ID number was an odd number and a non-administered group (control group) for which the end of the patient ID number was an even number, and a VK-II preparation (proprietary name […], made by Eisai Co., Ltd.) was orally administered at a dose of 45 mg/day to the administered group. Contrast CT or MRI was carried out every 3 months, and a statistical analysis of the time period until recurrence was carried out. Specifically, comparison was carried out using the Kaplan-Meier method (log-rank test), and the risk ratio for recurrence was analyzed using the Cox proportional hazard model.

For a further data set, the system named is HepG2 cells. Nature of the data set: Invasion assay using HepG2 cells and a Matrigel chamber. As to conditions: upon adding VK-II; depending on the concentration. It is filed as cell-based. An excerpt:
(§1) The action of VK-II according to the present application with regard to invasion/metastasis of hepatic cancer cells was studied in vitro. The action on invasion ability was investigated through an invasion assay using HepG2 cells and a Matrigel chamber. […] Regarding the action on the metastasis ability, the action of VK-II on the expression of extracellular matrix metalloproteinases (MMPs) was investigated using the Western blot method. […] From the above, although the data is in vitro, it can be presumed that VK-II inhibits invasion/metastasis of hepatic cancer cells.

The next data set has as its system MMP-1. Nature of the data set: MMP protein expression in hepatic cancer cells, Western blot. It is filed as cell-based. To be noted: VK-II added to hepatic cancer cells.
Source text: as §1

A further data set has as its system MMP-3. The data set is described as above. In kind it is cell-based. As to conditions: VK-II added to hepatic cancer cells.
Source text: as §1

For data set [3] the following is noted: cited from earlier work.
In data set [4] the test system is DCP-producing HCC cell line. To be noted: in vitro; Hepatology 1995, 22:876-82; cited from earlier work.

For `CC(C)=CCC/C(C)=C/CC/C(C)=C/CC/C(C)=C/CC1=C(C)C(=O)c2ccccc2C1=O` [VK-II, 2-methyl-3-tetraprenyl-1,4-naphthoquinone], the PVI incidence rate is 2% in data set [1] (after 1 year, 45 mg/day oral, untreated group 23%) and 23% in data set [1] (after 2 years, 45 mg/day oral, untreated group 47% (P=0.018)). In data set [1] (after 2 years, 45 mg/day oral, untreated group 28% (P=0.044)), this compound returned a survival rate of 66%. For the same compound, the “DCP level in the serum after hepatic cancer treatment” value in data set [1] (45 mg/day oral VK-II (Glakay), for 12 months, untreated group gradually increased) is “remained approximately constant”. In addition, in data set [2] (45 mg/day oral), the side effects result is recorded as “no side effects”. Besides, the “risk ratio for recurrence of hepatic cancer” value in data set [2] (HCV cases only) is 0.210; in data set [2] (all cases), 0.329. Also, the “time period until 50% recurrence” value in data set [2] (HCV cases only) and in data set [2] (all cases) was 26 months in each case. Also, the “1-year cumulative recurrence rate” value in data set [2] (HCV cases only, control group 61.5%) amounted to 7.1%; in data set [2] (all cases, 45 mg/day oral, control group 55.2%), 12.5%. In addition, the “2-year cumulative recurrence rate” value in data set [2] (HCV cases only, control group 87.2%) turned out to be 37.8%; in data set [2] (all cases, 45 mg/day oral, control group 85.5%), 39.6%. Further, in data set [2] (all cases of recurrence in the VK-II-administered group), the DCP upon recurrence result is given as “negative”. Moreover, the “hepatic cancer cumulative recurrence rate compared with the control group” value in data set [2] (excluding cases of local recurrence (29 vs 22 cases)) and in data set [2] (excluding cases of recurrence within 6 months (31 vs 22 cases)) was “statistically significantly suppressed” throughout. Further, the “number of cells passing through the Matrigel” value with HepG2 cells was “dropped”. The MMP-1 protein expression entry in the data set on MMP-1 is reported as “inhibited”. Also, the MMP-3 protein expression entry with MMP-3 is listed as “inhibited”. In data set [3], the solubility in water result is recorded as “hardly dissolves in water”. In addition, the cell proliferation result in data set [4] is “inhibited”.
